Values quoted from earlier work in patent publication US9039761B2, “Ocular implant delivery assemblies with distal caps” (Allergan, Inc., priority 2006, dated 2015).

Settings: efficacy in vivo; Goodman and Gilman's 8th Edition p. 1447

C[C@]12CCC(=O)C=C1CC[C@@H]1[C@@H]2[C@@H](O)C[C@@]2(C)[C@H]1CC[C@]2(O)C(=O)CO [hydrocortisone]
potency relative to dexamethasone (fold less potent): approximately twenty-five
